The values below come from patent US9422311B2, “Compounds for the treatment of hepatitis C” (priority 2012, dated 2016).

For the experiment, the system named is HCV pseudoparticles, genotype 1a (H77C) E1 and E2 envelope. The experiment in a line: HCV pseudoparticle infection assay (luciferase, Huh7 cells). It is filed as cell-based, hepatitis C virus (HCV) genotype 1a. To be noted: Hepatitis C virus, Huh-7, 48 h, read-out: EC50 (nM) 1a (H77C), HCV pseudoparticles genotype 1a (H77C), Huh7 cells, luciferase 2 days after infection.

Read-outs that look alike come from different tables or passages of the source.

The term EC50 denotes the concentration that produces a half-maximal response.

On to `C=C1COc2ccc(cc2)CNc2nc(nc(OCC(F)(F)F)n2)Nc2ccc(cc2)C(=O)NCC(C)(C)CN(C(=O)C(=O)OCC)C1` [Example 1001], for which the EC50 reads like this: (class symbol) 0.1 to 100 nM; (numeric value) 0.629 nM.

Turning to `C=C1COc2ccc(cc2)CNc2nc(nc(OCC(F)(F)F)n2)Nc2ccc(cc2)C(=O)NCC(C)(C)CN(C(=O)C(=O)O)C1` [Example 1002], the concentration giving a half-maximal response (EC50) reads like this: (class symbol) 0.1 to 100 nM; (numeric value) 5.73 nM.

Take `C=C1COc2ccc(cc2)CNc2nc(nc(OCC(F)(F)F)n2)Nc2ccc(cc2)C(=O)NCC(C)(C)CN(C(=O)C(=O)NCC2CC2)C1` [Example 1003]: the half-maximal effective concentration (EC50) (class symbol) fell in the range of 0.1 to 100 nM.

`C=C1COc2ccc(cc2)CNc2nc(nc(OCC(F)(F)F)n2)Nc2ccc(cc2)C(=O)NCC(C)(C)CN(C(=O)C(=O)Nc2ccc(F)cc2)C1` [Example 1004]: where the note is “class symbol”, the EC50 lay within 0.1 to 100 nM.

For the compound `CC1(C)CNC(=O)c2ccc(nc2)Nc2cc(nc(OCC(F)(F)F)n2)NCc2ccc(cc2)OCCCN(C(=O)C(=O)Nc2ccc(Cl)c(F)c2)C1` [Example 2003], the EC50 was 0.1 to 100 nM (class symbol) and 0.105 nM (numeric value).

With `CC1(C)CNC(=O)c2ccc(nc2)Nc2cc(nc(OCC(F)(F)F)n2)NCc2ccc(cc2)OCCCN(C(=O)C(=O)Nc2ccc(C#N)cc2)C1` [Example 2004], under “class symbol”, the concentration giving a half-maximal response (EC50) was 0.1 to 100 nM.

Turning to `CN(C)C(=O)C(=O)N1CCCOc2ccc(cc2Cl)CNc2nc(nc(OCC(F)(F)F)n2)Nc2ccc(cc2)C(=O)NCC(C)(C)C1` [Example 3001], the concentration giving a half-maximal response (EC50) (class symbol) lay within 0.1 to 100 nM.

Consider `CC1(C)CNC(=O)c2ccc(cc2)Nc2nc(nc(OCC(F)(F)F)n2)NCc2ccc(c(Cl)c2)OCCCN(C(=O)C(N)=O)C1` [Example 3002], for which the concentration giving a half-maximal response (EC50) (class symbol) was in the range of 0.1 to 100 nM.

For `Cc1ccc(NC(=O)C(=O)N2CCCOc3ccc(cc3Cl)CNc3nc(nc(OCC(F)(F)F)n3)Nc3ccc(cc3)C(=O)NCC(C)(C)C2)cc1` [Example 3003], for the setting “class symbol”, the concentration giving a half-maximal response (EC50) fell in the range of 0.1 to 100 nM.

Regarding `CC1(C)CNC(=O)c2ccc(cc2)Nc2nc(nc(OCC(F)(F)F)n2)NCc2ccc(c(Cl)c2)OCCCN(C(=O)C(=O)N2CCOCC2)C1` [Example 3005], the EC50 (class symbol) fell in the range of 0.1 to 100 nM.

As for `CC1(C)CNC(=O)c2ccc(cc2)Nc2nc(nc(OCC(F)(F)F)n2)NCc2ccc(c(Cl)c2)OCCCN(C(=O)C(=O)Nc2nncs2)C1` [Example 3006], the 50% effective concentration (EC50) (class symbol) was 0.1 to 100 nM.

As to `CC1(C)CNC(=O)c2ccc(cc2)Nc2nc(nc(OCC(F)(F)F)n2)NCc2ccc(c(Cl)c2)OCCCN(C(=O)C(=O)Nc2cccc(F)c2)C1` [Example 3007], the 50% effective concentration (EC50) (class symbol) was in the range of 0.1 to 100 nM.

For `CC1(C)CNC(=O)c2ccc(cc2)Nc2nc(nc(OCC(F)(F)F)n2)NCc2ccc(c(Cl)c2)OCCCN(C(=O)C(=O)Nc2ccc(F)cc2)C1` [Example 3008], the EC50 by setting is: (class symbol) 0.1 to 100 nM; (numeric value) 2.42 nM.

Consider `CC1(C)CNC(=O)c2ccc(cc2)Nc2nc(nc(OCC(F)(F)F)n2)NCc2ccc(c(Cl)c2)OCCCN(C(=O)C(=O)Nc2ccccc2)C1` [Example 3009], for which the EC50 (class symbol) lay in the range of 0.1 to 100 nM.

Take `CC1(C)CNC(=O)c2ccc(cc2)Nc2nc(nc(OCC(F)(F)F)n2)NCc2ccc(c(Cl)c2)OCCCN(C(=O)C(=O)Nc2cc(F)cc(F)c2)C1` [Example 3010]: the EC50 (class symbol) fell in the range of 0.1 to 100 nM.

Turning to `CC1(C)CNC(=O)c2ccc(cc2)Nc2nc(nc(OCC(F)(F)F)n2)NCc2ccc(c(Cl)c2)OCCCN(C(=O)C(=O)NC2CCCCC2)C1` [Example 3012], the concentration for a half-maximal effect (EC50) (class symbol) lay in the range of 0.1 to 100 nM.

Turning to `CC1(C)CNC(=O)c2ccc(cc2)Nc2nc(nc(OCC(F)(F)F)n2)NCc2ccc(c(Cl)c2)OCCCN(C(=O)C(=O)N2CCc3ccccc3C2)C1` [Example 3013], the concentration for a half-maximal effect (EC50) (class symbol) was 0.1 to 100 nM.

`CC(C)CNC(=O)C(=O)N1CCCOc2ccc(cc2Cl)CNc2nc(nc(OCC(F)(F)F)n2)Nc2ccc(cc2)C(=O)NCC(C)(C)C1` [Example 3014]: the EC50 (class symbol) lay in the range of 0.1 to 100 nM.

As for `CNC(=O)C(=O)N1CCCOc2ccc(cc2Cl)CNc2nc(nc(OCC(F)(F)F)n2)Nc2ccc(cc2)C(=O)NCC(C)(C)C1` [Example 3015], the EC50 (class symbol) is 0.1 to 100 nM.

For `CCc1nnc(NC(=O)C(=O)N2CCCOc3ccc(cc3Cl)CNc3nc(nc(OCC(F)(F)F)n3)Nc3ccc(cc3)C(=O)NCC(C)(C)C2)s1` [Example 3016], the EC50 by setting is: (class symbol) 0.1 to 100 nM; (numeric value) 24 nM.

On to `Cc1cc(NC(=O)C(=O)N2CCCOc3ccc(cc3Cl)CNc3nc(nc(OCC(F)(F)F)n3)Nc3ccc(cc3)C(=O)NCC(C)(C)C2)no1` [Example 3017], for which, for the setting “class symbol”, the EC50 fell in the range of 0.1 to 100 nM.

In the case of `CC1(C)CNC(=O)c2ccc(cc2)Nc2nc(nc(OCC(F)(F)F)n2)NCc2ccc(c(Cl)c2)OCCCN(C(=O)C(=O)N2CCCCC2)C1` [Example 3018], the concentration for a half-maximal effect (EC50) (class symbol) lay within 0.1 to 100 nM.

On to `CC1(C)CNC(=O)c2ccc(cc2)Nc2nc(nc(OCC(F)(F)F)n2)NCc2ccc(c(Cl)c2)OCCCN(C(=O)C(=O)Nc2nccs2)C1` [Example 3019], for which, under “class symbol”, the EC50 lay in the range of 0.1 to 100 nM.

For the compound `Cc1nnc(NC(=O)C(=O)N2CCCOc3ccc(cc3Cl)CNc3nc(nc(OCC(F)(F)F)n3)Nc3ccc(cc3)C(=O)NCC(C)(C)C2)s1` [Example 3020], the EC50 (class symbol) is 0.1 to 100 nM.
